What was measured:
[1] = system: cancers responsive to paclitaxel; assay: Long term administration of paclitaxel at sub-therapeutic dose levels in cancer treatment; type: in vivo
From the text: In rapidly dividing cells as in a tumor, different cells are in different phases of the cell cycle at any given time.
The entire dose is usually given on the first day of the 3 week cycle.

tumor cell lines = conditions: cited from earlier work

CC(=O)O[C@H]1C(=O)[C@@]2(C)[C@H]([C@H](OC(=O)c3ccccc3)[C@]3(O)C[C@H](OC(=O)[C@H](O)[C@@H](NC(=O)c4ccccc4)c4ccccc4)C(C)=C1C3(C)C)[C@]1(OC(C)=O)CO[C@@H]1C[C@@H]2O [paclitaxel]
benefit in the treatment of cancers responsive to paclitaxel ([1]; continuous administration over 3 weeks, total cumulative dose e.g. 50-150 mg/m^2): significant benefit is obtained
benefit in the treatment of cancers responsive to paclitaxel ([1]; plasma levels maintained at 0.01-0.05 μg/ml over a week or longer): significant benefit is obtained
concentration at which paclitaxel is active on tumor cell lines (tumor cell lines; in vitro, tumor cell lines): ~0.5 µg/mL
levels high enough to be cytotoxic to the tumor cells (tumor cell lines; tumor cells of the cancer being treated): 0.5 to 1.0 µg/mL

Reference: patent US20070196361A1, “Long term administration of pharmacologically active agents” (priority 1999, published 2007)
